Measurements published in patent US20100113430A1, “THIOXANTHENE DERIVATES USEFUL TO TREAT INFECTIOUS DISEASES” (BKG PHARMA APS, priority 2007, published 2010).
≈ marks a conversion by molar mass, not a printed value.

How the values were obtained:
Assay type in all cases: cell-based
[1] = system: multiresistant clinical isolate of Staphylococcus epidermidis; experiment: MIC, microdilution broth method (NCCLS), Staphylococcus epidermidis
Experimental: (§1) Cell growth was tested using the Minimal Inhibitory Concentration (MIC) susceptibility tests by use of the microdilution broth method in accordance to the NCCLS Guidelines (NCCLS Guidelines, Methods for Dilution Antimicrobial Susceptibility Tests for Bacteria That Grow Aerobically; Approved Standard, Sixth Edition, Volume 23; Number 2). The minimum inhibitory concentration (MIC), is defined ad the lowest concentration of drug which inhibits growth of the test organism, in the sense that no visible growth is detected (total inhibition of growth). In example 2 MIC of the compounds used on fungal microorganisms was determined from the IC90 measurements according to NCCLS Guidelines.
A log phase culture of bacteria was diluted with fresh pre-warmed Mueller-Hinton medium and adjusted to a defined OD at 600 nm in order to give a final concentration of 1×10^4-5 bacteria/ml medium. The bacterial culture was transferred to microtiter-plates and culture was added to each well. […] Trays were incubated at 37° C. by shaking in a robot analyzer, PowerWavex, software KC^4′ Kebo.Lab, Copenhagen, for 16 h and optical densities were measured at 600 nm during the incubation time in order to record growth curves. Wells containing bacterial culture without drug were used as controls to ensure correct inoculum size and bacterial growth during the incubation. Cultures were tested in order to detect contaminations. Each experiment was repeated in triplicate.
A clinically relevant isolate of Staphylococcus epidermidis was cultured and assayed as described above for susceptibility towards the compounds listed in table 1.

[2] = system: Candida albicans clinical isolate; experiment: MIC (90% growth inhibition), broth microdilution NCCLS M27-A, Candida albicans; settings: strain 1. Candida albicans FR (fluconazole resistant)
Experimental: as §1
The antibacterial effect of demethylated/dealkylated phenothiazine or thioxanthene compounds were studied by growth inhibition studies exposing cells to 0-32 μg/ml of drug. Each experiment was repeated in triplicate. MIC values represent the mean values of two separate triplicate experiments.
(§2) 4 clinical isolates of Candida sp. (including 3 fluconazole resistant isolates) were subcultured for 24 h on Sabouraud glucose agar before susceptibility testing. Broth microdilution tests were performed according to NCCLS document M27-A (Ref: National Committee for Clinical Laboratory Standards. (1997). Reference Method for Broth Dilution Antifungal Susceptibility Testing of Yeasts: Approved Standard M27-A. NCCLS, Wayne, Pa.). Microtitre plates were read spectrophotometrically at 530 nm, after mixing the wells by pipetting to resuspend yeast sediments. In this experiment, the MIC was defined as the lowest drug dilution resulting in 90% growth inhibition.

[3] = system: Candida glabrata clinical isolates; experiment: MIC (90% growth inhibition), broth microdilution NCCLS M27-A, Candida glabrata
Experimental: as §1, with “Guidelines. […]” for “Guidelines.”
as §2

[4] = system: Staphylococci, Micrococci. Including MRSA; experiment: MIC/IC90 broad spectrum, Staphylococci and Micrococci; settings: 30 strains, 20 resistant (20 MRSA)
Experimental: as §1
(§3) A log phase culture of bacteria was diluted with fresh pre-warmed Mueller-Hinton medium and adjusted to a defined OD at 600 nm in order to give a final concentration of 1×10^4-5 bacteria/ml medium. The bacterial culture was transferred to microtiter-plates and culture was added to each well. Drug was added to the bacterial culture in the wells as two-fold dilution series of drug in order to give final concentrations ranging from 0.03 to 128 μg/ml. Trays were incubated at 37° C. by shaking in a robot analyzer, PowerWavex, software KC^4′ Kebo.Lab, Copenhagen, for 16 h and optical densities were measured at 600 nm during the incubation time in order to record growth curves. Wells containing bacterial culture without drug were used as controls to ensure correct inoculum size and bacterial growth during the incubation. Cultures were tested in order to detect contaminations. Each experiment was repeated in triplicate. MIC values represent the mean values of two separate triplicate experiments. Intra- and interassay variation was <5%.
(§4) Inhibition 90 (IC90) is defined as: OD responding a 90% growth inhibition.
(§5) A broad spectrum of bacteria were cultured and assayed as described above for susceptibility towards N-dealkyl-clopenthixol.

Streptococci = experiment: MIC/IC90 broad spectrum, Streptococci; settings: 30 strains, 20 resistant
Experimental: as §1, §3, §4, §5

Gram negative sp. = experiment: MIC/IC90 broad spectrum, Gram negative sp.; settings: 25 strains, 20 resistant
Experimental: as §1, §3, §4, §5

[5] = system: Enterococcus faecium resistant clinical isolates; experiment: MIC/IC90, resistant clinical isolates of Enterococcus faecium
Experimental: as §1, §3
Inhibition 90 (IC90) is defined as: OD responding a 90% growth inhibition. […]
(§6) Clinically relevant isolates were cultured and assayed as described above.

[6] = system: Candida glabrata Multiresistant isolate; experiment: MIC of cis- and trans-forms, Candida glabrata multiresistant isolate; settings: Example 4
Experimental: as §1
Cultured microorganisms were assayed as described above. Cis- and trans-isomers of N-dealkyl-clopenthixol was added to the cultures.

[7] = system: Enterococcus faecalis resistant clinical isolates; experiment: MIC/IC90, resistant clinical isolates of Enterococcus faecalis
Experimental: as §1, §3, §4, §6

[8] = system: clinically relevant resistant bacterial isolate S. Aureus; experiment: Growth inhibition by cis/trans combinations, resistant isolate S. Aureus; settings: Cis-compound 16 μg/ml, Trans-compound 0 μg/ml
Experimental: as §1
as §3, with “Wells containing bacterial culture without drug were used as controls to ensure correct inoculum size and bacterial growth during the incubation. Cultures were tested in order to detect contaminations. Each experiment was repeated in triplicate. MIC values represent the mean values of two separate triplicate experiments. Intra- and interassay variation was <5%.” left out

[9] = system: Fluconazole Resistant Candida albicans clinical isolate; experiment: MIC (80% growth inhibition), broth microdilution NCCLS M27-A, fluconazole resistant Candida albicans; settings: Candida albicans
Experimental: The antimicrobial effect of N-dealkyl-trans-clopenthixol and N-dealkyl-trans-flupenthixol was studied by exposing cells to 0-8 μg/ml of the compounds in two-fold dilutions. Each experiment was repeated in triple duplicate. MIC values represent the mean values of two separate experiments.
Clinical Isolate of A Fluconazole Resistant Candida albicans from a Patient with Candidemia.
The isolates were subcultured for 24 h on Sabouraud glucose agar before susceptibility testing. Broth microdilution tests were performed according to NCCLS document M27-A (Ref: National Commitee for Clinical Laboratory Standards. (1997). Reference Method for Broth Dilution Antifungal Susceptibility Testing of Yeasts: Approved Standard M27-A. NCCLS, Wayne, Pa.)
Microtitre plates were read spectrophotometrically at 530 nm, after mixing the wells by pipetting to resuspend yeast sediments. The MIC was defined as the lowest drug dilution resulting in 80% growth inhibition.

[10] = multiresistant clinical isolate of Staphylococcus epidermidis, Example 1
[11] = strain 2. Candida glabrata FR (fluconazole resistant)
[12] = strain 4. Candida glabrata FR (fluconazole resistant)

Q: `CNCCC=C1c2ccccc2Sc2ccc(Cl)cc21` [N-desmethyl-Chlorprothixen, reference compound] was tested. Which MIC [1, 10] did it give?
A: The MIC was 16 µg/mL (≈ 53 µM).

Q: And the MIC [2]?
A: Its MIC is 16 µg/mL (≈ 53 µM).

Q: What about the MIC [3, 11] of the same molecule?
A: The MIC was 16 µg/mL (≈ 53 µM).

Q: And the MIC [3, 12]?
A: Its MIC is 16 µg/mL (≈ 53 µM).

Q: What about the MIC ([3]; strain 5. Candida glabrata) of the same molecule?
A: The MIC was 16 µg/mL (≈ 53 µM).

Q: Which MIC [1, 10] does the source give for `Fc1ccc2c(c1)C(=CCCN1CCNCC1)c1ccccc1S2` [N-dealkyl-cis-flupenthixol, cis-1-(3-(2-fluor-thioxanthen-9-ylidene)propyl)piperazine] here?
A: The MIC was 16 µg/mL (≈ 47 µM).

Q: Which MIC [1, 10] does the source give for `FC(F)(F)c1ccc2c(c1)N(CCCN1CCNCC1)c1ccccc1S2` [N-deshydroxy-ethyl-Fluphenazine, reference compound] here?
A: Its MIC is 16 µg/mL (≈ 40.7 µM).

Q: For “Desmethyl-perphenazin [reference compound]”, which MIC [1, 10] is on record?
A: The MIC was 16 µg/mL.

Q: What about the MIC [2] of the same molecule?
A: The MIC was 16 µg/mL.

Q: What about the MIC [3, 11] of the same molecule?
A: The MIC was 16 µg/mL.

Q: And the MIC [3, 12]?
A: The MIC was 16 µg/mL.

Q: And the MIC ([3]; strain 5. Candida glabrata)?
A: Its MIC is 16 µg/mL.

Q: `CNCCCN1c2ccccc2Sc2ccc(Cl)cc21` [N-desmethyl-chlorpromazine, reference compound] was tested. Which MIC [1, 10] did it give?
A: The MIC was 16 µg/mL (≈ 52.5 µM).

Q: How did the MIC ([1]; Staphylococcus epidermidis multiresistant isolate, Example 6, isomers alone and 1:1 mixture) turn out when `Clc1ccc2c(c1)/C(=C\CCN1CCNCC1)c1ccccc1S2` [N-dealkyl-cis-clopenthixol, cis-1-(3-(2-chlorothioxanthen-9-ylidene)propyl)piperazine] was run?
A: The MIC was greater than 8 µg/mL.

Q: And the MIC [1, 10]?
A: The MIC was 16 µg/mL (≈ 44.8 µM).

Q: And the “MIC (mean)” value [4]?
A: Its value is 16 µg/mL (≈ 44.8 µM).

Q: What about the “MIC (mean)” value (Streptococci) of the same molecule?
A: The value was 16 µg/mL (≈ 44.8 µM).

Q: What about the “MIC (mean)” value (Gram negative sp.) of the same molecule?
A: The value was greater than 16 µg/mL.

Q: And the MIC ([5]; Enterococcus faecium 11, VanA)?
A: Its MIC is greater than 8 µg/mL.

Q: What about the MIC ([5]; Enterococcus faecium 12, VanA) of the same molecule?
A: The MIC was greater than 8 µg/mL.

Q: What about the MIC ([5]; Enterococcus faecium 13, VanB) of the same molecule?
A: Its MIC is greater than 8 µg/mL.

Q: What about the MIC ([5]; Enterococcus faecium 14, HLAR) of the same molecule?
A: The MIC was greater than 8 µg/mL.

Q: And the MIC ([5]; Enterococcus faecium 15, HLAR)?
A: The MIC was greater than 8 µg/mL.

Q: And the MIC ([5]; Enterococcus faecium 16, BLR, CR)?
A: Its MIC is greater than 8 µg/mL.

Q: What about the MIC ([5]; Enterococcus faecium 17, VanB) of the same molecule?
A: Its MIC is greater than 8 µg/mL.

Q: And the MIC ([5]; Enterococcus faecium 18, VanB)?
A: Its MIC is greater than 8 µg/mL.

Q: What about the MIC ([5]; Enterococcus faecium 19, VanB) of the same molecule?
A: The MIC was greater than 8 µg/mL.

Q: What about the MIC ([5]; Enterococcus faecium multiresistant isolate, Example 4) of the same molecule?
A: The MIC was 16 µg/mL (≈ 44.8 µM).

Q: What about the MIC [6] of the same molecule?
A: The MIC was greater than 16 µg/mL.

Q: And the MIC ([7]; Enterococcus faecalis 1, VanA)?
A: Its MIC is greater than 8 µg/mL.

Q: What about the MIC ([7]; Enterococcus faecalis 2, VanA) of the same molecule?
A: The MIC was greater than 8 µg/mL.

Q: And the MIC ([7]; Enterococcus faecalis 3, VanA)?
A: The MIC was greater than 8 µg/mL.

Q: And the MIC ([7]; Enterococcus faecalis 4, VanB)?
A: The MIC was greater than 8 µg/mL.

Q: What about the MIC ([7]; Enterococcus faecalis 5, Van B) of the same molecule?
A: Its MIC is greater than 8 µg/mL.

Q: And the MIC ([7]; Enterococcus faecalis 6, VanB)?
A: The MIC was greater than 8 µg/mL.

Q: And the MIC ([7]; Enterococcus faecalis 7, VanA)?
A: Its MIC is greater than 8 µg/mL.

Q: And the MIC ([7]; Enterococcus faecalis 8, HLAR)?
A: The MIC was greater than 8 µg/mL.

Q: And the MIC ([7]; Enterococcus faecalis 9, HLAR)?
A: Its MIC is greater than 8 µg/mL.

Q: And the MIC ([7]; Enterococcus faecalis 10, BLR, CR)?
A: The MIC was greater than 8 µg/mL.

Q: And the Growth inhibition [8]?
A: The Growth inhibition was 100%.

Q: Which MIC [9] does the source give for `OC(Cn1cncn1)(Cn1cncn1)c1ccc(F)cc1F` [Fluconazole, reference compound] here?
A: Its MIC is 128 µg/mL (≈ 418 µM).
